Laboratory results as given in publication PMC7395068, “The evolution of strategies to minimise the risk of human drug-induced liver injury (DILI) in drug discovery and development” (Archives of Toxicology, 2020).
Where two headings read alike, the source gives them in different places.

Key:
hu-MPCC = settings: cited from earlier work
RMPCC's [1] = settings: cited from earlier work
[2] = cited from earlier work
[3] = cited from earlier work; remark: listed apart in the source
human hepatocytes = settings: cited from earlier work
rBsep [4] = settings: In vitro Assay; ref Dawson 2012; cited from earlier work
[5] = tested on: THLE or HepG2 cells, isolated mitochondria, BSEP; settings: cited from earlier work
[6] = tested on: isolated mouse liver mitochondria; settings: In vitro Assay; ref Porceddu 2012; cited from earlier work
HepG2 cells [7] = settings: cited from earlier work
hLiMTs = assay: Combined HCI (HCS) and cellular ATP 3D assay in hLiMTs
[8] = read-out: Human plasma Cmax; total plasma Cmax.tot, median of 9 literature references; cited from earlier work
[9] = tested on: THLE-Null and THLE-3A4 cells; settings: In vitro Assay; ref Gustafsson 2014; cited from earlier work
Upcyte human hepatocytes = settings: In vitro Assay; ref Tolosa 2019; cited from earlier work
[10] = Plasma free fraction (fu) and unbound Cmax (Cmax,u); assay type: in vitro ADME, human; settings: unbound plasma Cmax
Protocol: The prediction of DILI severity was evaluated further using the 3D combined HCI assays using plasma-free fraction. The majority of fu values were obtained from literature, when unavailable in-house prediction was utilised. Unbound plasma Cmax concentrations (Cmax,u) were derived by multiplying total plasma Cmax with the corresponding free fraction (fu) for each compound.

RMPCC's [11] = settings: In vitro Assay; ref Khetani 2012; cited from earlier work
HepG2 = tested on: HepG2; set-up: method as in Albrecht 2019; settings: In vitro Assay; ref Albrecht 2019; cited from earlier work
[12] = tested on: HepG2 cells, primary human hepatocytes; settings: In vitro Assay; ref Garside 2014; cited from earlier work
[13] = tested on: primary human hepatocytes, NIH3T3 fibroblasts, BSEP, CYP3A4; settings: cited from earlier work
[14] = plasma free fraction; cited from earlier work
PHH = settings: In vitro Assay; ref Albrecht 2019; cited from earlier work
[15] = ref Chen 2011; cited from earlier work
HepaRG spheroids = assay: Combined HCI (HCS) and cellular ATP 3D assay in HepaRG spheroids; settings: for AC50 / minimal effective concentration: Homo sapiens; for DILI prediction HepaRG spheroids (HCS-MEC): Microtissue model structural based (HCI), combined HCS and ATP, MEC < 25 × Cmax.tot cut-off
HepG2 cells [16] = settings: In vitro Assay; ref O'Brien 2006; cited from earlier work
rBsep [17] = tested on: rBsep; set-up: method as in Dawson 2012; settings: In vitro Assay; ref Dawson 2012; cited from earlier work
[18] = In vitro Assay, ref Khetani 2012
[19] = Modeled in vitro assays (cytotoxicity, mitochondrial dysfunction, BSEP), ref Aleo et al. 2019
[20] = In vitro Assay, ref Schadt 2015

COc1ccc2c(c1)[C@]13CCCC[C@@H]1[C@H](C2)N(C)CC3 [dextromethorphan]
HMPCC's (hu-MPCC; [18]): -VE
RMPCC's (RMPCC's [1]; [18]): -VE
In vivo DILI ([2]; ref Khetani 2012): -VE
In vivo DILI ([2]; ref Xu 2008): -VE
DILI +VE (5-8), DILI -VE (-4) ([3]; ref Chen 2016): -VE
DILI severity category ([3]; ref Chen 2016): vNo-DILI-Concern
Structural based (HCI) (human hepatocytes; In vitro Assay, ref Xu 2008): -VE

NC(=O)NO [hydroxyurea]
HMPCC's (hu-MPCC): +VE
RMPCC's (RMPCC's [1]): +VE
In vivo DILI ([2]; in vivo): +VE
DILI +VE (5-8), DILI -VE (-4) ([3]; ref Chen 2016): +VE
DILI severity category ([3]; ref Chen 2016): vMost-DILI-Concern
Structural based (HCI) (human hepatocytes): -VE

NNC(=O)c1ccncc1 [isoniazid, reference compound]
Inhibition of rBsep cutoff<1& cmax u>.2 (rBsep [4]): -VE
Inhibition of rBsep cutoff<3 (rBsep [4]): -VE
Partition Hybrid HRM Score ([5]; In vitro Assay, ref Aleo 2019): +VE
Ro2 Hybrid HRM Score ([5]; In vitro Assay, ref Aleo 2019): -VE
Partition Hybrid HRM Score ≥4, Aleo (2019) [5, 19]: +VE (Partition Hybrid HRM Score ≥4)
Partition Hybrid HRM Score ≥8, Aleo (2019) [5, 19]: -VE
Rule of Two hybrid HRM Score ≥3, Aleo (2019) [5, 19]: -VE
Rule of Two hybrid HRM Score ≥8, Aleo (2019) [5, 19]: -VE
in vitro data EC2<=1x Cmax [6]: +VE
in vitro data EC20<=2uM [6]: -VE
Structural based (HCI) (HepG2 cells [7]; In vitro Assay, ref Tolosa 2012): +VE
DILI in vitro assay prediction, Tolosa (2012) (HepG2 cells [7]; Structural based (HCI), HepG2, ref Tolosa et al. 2012): -VE
DILI prediction hLiMTs (HCS-MEC) (hLiMTs; Microtissue model structural based (HCI), combined HCS and ATP, MEC < 25 × Cmax.tot cut-off): -VE
hLiMTs <25x Avg Cmax ATP (hLiMTs; hLiMTs, ATP endpoint, cut-off <25x Avg Cmax): -ve
hLiMTs <100x Avg Cmaxu ATP (hLiMTs; hLiMTs, ATP endpoint, cut-off <100x Avg Cmaxu): -ve
hLiMTs <25x Avg Cmax HCS (hLiMTs; hLiMTs, HCS endpoints, cut-off <25x Avg Cmax): -ve
hLiMTs <100x Avg Cmaxu HCS (hLiMTs; hLiMTs, HCS endpoints, cut-off <100x Avg Cmaxu): -ve
hLiMTs <25x Avg Cmax All (hLiMTs; hLiMTs, all endpoints (ATP and HCS), cut-off <25x Avg Cmax): -ve
hLiMTs Cmax max All (hLiMTs; hLiMTs, all endpoints, Cmax max used): -ve
hLiMTs Cmax min All (hLiMTs; hLiMTs, all endpoints, Cmax min used): -ve
hLiMTs <10 uM All (hLiMTs; hLiMTs, all endpoints, cut-off <10 uM): -ve
hLiMTs <100x Avg Cmaxu All (hLiMTs; hLiMTs, all endpoints, cut-off <100x Avg Cmaxu): -ve
Cmax [8]: 76.6 µM
HMPCC's (hu-MPCC; [18]): +VE
THLE-Null [9]: -VE
Upcytes multi donor assay 14day data (Upcyte human hepatocytes): +VE
Human plasma Cmax,u [10]: 74.267 µM
RMPCC's (RMPCC's [11]): -VE
Cytotoxicity HepG2 48 hrs (HepG2): +VE
Cluster 1-6 +VE Assay [12]: -VE
DILI in vitro assay prediction, Schadt (2015) ([13]; BSEP & Metabolism based, ref Schadt et al. 2015): +VE
Cellular toxicity (3T3 cells) [13, 20]: -VE
Combined Assay [13, 20]: +VE
GSH adduct HML [13, 20]: -VE
Hepatocyte cellular toxicity [13, 20]: -VE
MitoTox 3T3 [13, 20]: +VE
hBSEP inhibition [13, 20]: -VE
fu [14]: 0.970
Cytotoxicity PHH 48 hrs (PHH): +VE
Assigned DILI category ([2]; Chen et al. 2016 or literature alignment, ref Chen et al. 2016): 3
In vivo DILI ([2]; […]): +VE
In vivo DILI ([2]; ref Albrecht 2019): +VE
In vivo DILI ([2]; ref Aleo 2019): +VE
In vivo DILI ([2]; ref Dawson 2012): +VE
In vivo DILI ([2]; ref Garside 2014): +VE
In vivo DILI ([2]; ref Gustafsson 2014): +VE
In vivo DILI ([2]; ref Khetani 2012): +VE
In vivo DILI ([2]; ref Porceddu 2012): +VE
In vivo DILI ([2]; ref Schadt 2015): +VE
In vivo DILI ([2]; ref Tolosa 2012): +VE
In vivo DILI ([2]; ref Tolosa 2019): +VE
In vivo DILI ([2]; ref Xu 2008): +VE
DILI Score (FDA) (1-8) [15]: 8
DILI severity category (Chen 2016) ([3]; human DILI classification, LTKB DILIrank, ref Chen et al. 2016): Most
DILI severity category ([3]; human DILI severity, ref Chen et al.): Most
DILI +VE (5-8), DILI -VE (-4) ([3]; ref Chen 2016): +VE
DILI severity category ([3]; ref Chen 2016): vMost-DILI-Concern
Structural based (HCI) (human hepatocytes; In vitro Assay, ref Xu 2008): -VE
DILI in vitro assay prediction, Xu (2008) (human hepatocytes; Structural based (HCI), human hepatocytes, ref Xu et al. 2008): -VE
HepaRG <25x Avg Cmax ATP (HepaRG spheroids; HepaRG, ATP endpoint, cut-off <25x Avg Cmax): +ve
HepaRG <100x Avg Cmaxu ATP (HepaRG spheroids; HepaRG, ATP endpoint, cut-off <100x Avg Cmaxu): +ve (<100x Avg Cmaxu)
HepaRG <25x Avg Cmax HCS (HepaRG spheroids; HepaRG, HCS endpoints, cut-off <25x Avg Cmax): -ve
HepaRG <100x Avg Cmaxu HCS (HepaRG spheroids; HepaRG, HCS endpoints, cut-off <100x Avg Cmaxu): +ve (<100x Avg Cmaxu)
HepaRG <25x Avg Cmax All (HepaRG spheroids; HepaRG, all endpoints (ATP and HCS), cut-off <25x Avg Cmax): +ve
HepaRG Cmax max All (HepaRG spheroids; HepaRG, all endpoints, Cmax max used): +ve
HepaRG Cmax min All (HepaRG spheroids; HepaRG, all endpoints, Cmax min used): -ve
HepaRG <10 uM All (HepaRG spheroids; HepaRG, all endpoints, cut-off <10 uM): -ve
HepaRG <100x Avg Cmaxu All (HepaRG spheroids; HepaRG, all endpoints, cut-off <100x Avg Cmaxu): +ve (<100x Avg Cmaxu)
AC50 (HepaRG spheroids; HepaRG, read-out: ATP endpoint AC50): 3.52 mM
minimal effective concentration (HepaRG spheroids; HepaRG, read-out: ATP endpoint MEC): 1330 µM
AC50 (HepaRG spheroids; HepaRG, read-out: HCS endpoint AC50): 14 mM
minimal effective concentration (HepaRG spheroids; HepaRG, read-out: HCS endpoint MEC): 5790 µM
DILI prediction HepaRG spheroids (HCS-MEC) (HepaRG spheroids): +VE (MEC < 25 × Cmax.tot cut-off)
DILI prediction HepaRG spheroids (HCS-MEC) (HepaRG spheroids; listed as Isoniazid): positive

C#CC1(O)CC[C@H]2[C@@H]3CCC4=CC(=O)CC[C@@H]4[C@H]3CC[C@@]21CC (some centres unmarked) [norgestrel]
HMPCC's (hu-MPCC): -VE
RMPCC's (RMPCC's [1]): -VE
In vivo DILI ([2]; in vivo): +VE
Structural based (HCI) (human hepatocytes): -VE

CCCC(CCC)C(=O)O [valproate]
Structural based (HCI) (HepG2 cells [16]): +VE (lowest HCI endpoint IC50 (or in the absence of dose–response < 100 µM) < 30 × total human plasma exposure levels (Cmax.tot))
Inhibition of rBsep cutoff<1& cmax u>.2 (rBsep [17]): -VE
Inhibition of rBsep cutoff<3 (rBsep [17]): -VE
Upcytes multi donor assay 14day data (Upcyte human hepatocytes): +VE
